Results on six compounds are retold here after patent US6596288B2, “Use of sterols as active ingredient in a cosmetic composition against adiposity” (Codif International SA, priority 2000, dated 2003).

Test [1] concerns human adipocytes. Description: incorporation of [2-14C]-acetate into lipids (LIPOGENESIS) by isolated human adipocytes. The test is classed as cell-based. The note with it: for % control (incorporation of acetate) / % inhibition (incorporation of acetate) / Average of cpm (incorporation of acetate) / cpm - t0 test (incorporation of acetate) / inhibition at 10 µM / inhibition at 100 µM / inhibition at 1000 µM: 4 h; for inhibition at 10 µM / inhibition at 100 µM / inhibition at 1000 µM: Homo sapiens, Adipocyte. The protocol:
(§1) In these experiments, adipocytes were isolated from abdominal restorative surgeries sampled in women. The experiment took place the day of the sampling. Fragments of adipose tissues were incubated for 30 minutes at 37° C. in the presence of collagenase, then the isolated adipocytes were washed and taken up in medium MEM buffered with bicarbonate, in the presence of antibiotics (penicillin/streptomycin), glutamine (2 mM), and delipidated bovine serum albumin (0.5%).
The tests concerning the effect on lipogenesis were then conducted in the following manner.
Adipocytes (90 μl of ¼ diluted suspension) were incubated for 1 hour, either with a control medium (4 hours), with molecules known to inhibit the neosynthesis of fatty acids (EPA), as for example […], or with previously diluted extracts (added under 100 μl).
As to the sterols and to the lipidic extracts of plants or algae, they were diluted in mineral oil which has been verified to not inhibit incorporation or extraction of adipocyte lipids. Then, 10 μl of [2^14C]-acetate, 50 μCi/ml, were added, and the samples were either cultivated at 37° C. in the presence of 5% CO2 for 4 additional hours, or immediately frozen at −80° C. (control t0).
At the times indicated, the samples were frozen at −80° C. The lipids were then extracted according to the method of Bligh and Dyer (extraction methanol/chloroform/water), then dried under nitrogen. The radioactivity incorporated was then counted by liquid scintillation.

Test [2] relates to human adipocytes. Description: liberation of NEFA (non-esterified fatty acids) (LIPOLYSIS) by isolated human adipocytes. The test is classed as cell-based. Conditions: for % Control (NEFA liberation) / Average of the NEFA: 2 hours at 37° C. The protocol:
as §1
As to the tests concerning the effect on lipolysis, they were conducted in the following manner. Adipocytes (540 μl of suspension) were incubated for 2 hours in a water bath at 37° C., with agitation, in the presence of 60 μl of different sterols. The experiments were carried out in triplicate.
Then, the non-esterified fatty acids (AGNE) released by the adipocytes were determined in the sub-adipocyte media. The values obtained were treated by an analysis of variance (ANOVA) by means of the multiple comparison test of Dunnett. The values were considered as significant when the probability p was less than the threshold of significance 0.05.

The mark [3] stands for this setting: 0.01 mM (10^−5 M), absence of insulin.
The mark [4] stands for this setting: 0.01 mM (10^−5 M), presence of insulin (1 nM).
The mark [5] stands for this setting: 0.1 mM (10^−4 M), absence of insulin.
[6] abbreviates: 0.1 mM (10^−4 M), presence of insulin (1 nM).
Where [7] appears, read: 1 mM (10^−3 M), absence of insulin.
[8] abbreviates: 1 mM (10^−3 M), presence of insulin (1 nM).
The mark [9] stands for this setting: 10^−6 M, 10^−5 M, 10^−4 M, 10^−3 M and 10^−2 M.

With `CC[C@H](CC[C@@H](C)[C@H]1CC[C@H]2[C@@H]3CC=C4C[C@@H](O)CC[C@]4(C)[C@H]3CC[C@]12C)C(C)C` [Beta-sitosterol, beta-sitosterol], the “incorporation of acetate by isolated human adipocytes (conclusion)” value in test [1] is on record as “inhibit the incorporation of acetate”. The “% control (incorporation of acetate)” value in test [1] (setting [3]) was determined as 96%; in test [1] (setting [4]) it was 89%; in test [1] (setting [5]), 95%; in test [1] (setting [6]), 93%; in test [1] (setting [7]) it was 84%; in test [1] (setting [8]) it was 83%. Besides, the “% inhibition (incorporation of acetate)” value is 4% in test [1] (setting [3]); “weak and non-significant” in test [1] (0.01 mM (10^−5 M), absence of insulin, listed as beta-sitosterol); 5% in test [1] (setting [5]); “weak and non-significant” in test [1] (0.1 mM (10^−4 M), absence of insulin, listed as beta-sitosterol); 16% in test [1] (setting [7]); 17% in test [1] (setting [8]). The “Average of cpm (incorporation of acetate)” value (shortened to “Average of cpm”) turned out to be 200044 cpm in test [1] (setting [3]); 216417 cpm in test [1] (setting [4]); 198694 cpm in test [1] (setting [5]); 224445 cpm in test [1] (setting [6]); 175711 cpm in test [1] (setting [7]); 201168 cpm in test [1] (setting [8]). In addition, the “cpm - t0 test (incorporation of acetate)” value in test [1] (setting [3]) is recorded as 193579 cpm; in test [1] (setting [4]), 209952 cpm; in test [1] (setting [5]), 192229 cpm; in test [1] (setting [6]), 217980 cpm; in test [1] (setting [7]) it was 169246 cpm; in test [1] (setting [8]) it was 194703 cpm. Moreover, the “% Control (NEFA liberation)” value in test [2] (10^−2 M) is reported as 92%; in test [2] (10^−3 M (1 mM)) it was 103%; in test [2] (10^−4 M), 96%; in test [2] (10^−5 M), 107%; in test [2] (10^−6 M (1 μM)), 110%. For the same compound, the “Average of the NEFA” value in test [2] (10^−2 M) is 131 µM; in test [2] (10^−3 M (1 mM)), 145 µM; in test [2] (10^−4 M) it was 135 µM; in test [2] (10^−5 M), 151 µM; in test [2] (10^−6 M (1 μM)) it was 156 µM. Besides, the stimulation of lipolysis result in test [2] (setting [9]) is “did not stimulate lipolysis”.

Regarding `CC(C)[C@H](C)CC[C@@H](C)[C@H]1CC[C@H]2[C@@H]3CC=C4C[C@@H](O)CC[C@]4(C)[C@H]3CC[C@]12C` [Campesterol, campesterol], in test [1], the “incorporation of acetate by isolated human adipocytes (conclusion)” value is “inhibit the incorporation of acetate”. For the same compound, the “% control (incorporation of acetate)” value turned out to be 92% in test [1] (setting [3]); 101% in test [1] (setting [4]); 90% in test [1] (setting [5]); 85% in test [1] (setting [6]); 74% in test [1] (setting [7]); 48% in test [1] (setting [8]). Further, the “Average of cpm” value in test [1] (setting [3]) is 191817 cpm; in test [1] (setting [4]), 243051 cpm; in test [1] (setting [5]) it was 188278 cpm; in test [1] (setting [6]) it was 206655 cpm; in test [1] (setting [7]), 156448 cpm; in test [1] (setting [8]), 119960 cpm. Also, the “cpm - t0 test (incorporation of acetate)” value in test [1] (setting [3]) is 185352 cpm; in test [1] (setting [4]), 236586 cpm; in test [1] (setting [5]), 181813 cpm; in test [1] (setting [6]), 200190 cpm; in test [1] (setting [7]), 149983 cpm; in test [1] (setting [8]), 113495 cpm. The “% inhibition (incorporation of acetate)” value in test [1] (setting [4]) is reported as “no significant effect”. Besides, the values for the inhibition at 10 µM in test [1] (setting [3]) and in test [1] (setting [4]) were 8% and 0%, respectively. The values for the inhibition at 100 µM in test [1] (setting [5]) and in test [1] (setting [6]) were 10% and 15%, respectively. Besides, the inhibition at 1000 µM in test [1] (setting [7]) was 26%; in test [1] (setting [8]), 52%. Moreover, the “% Control (NEFA liberation)” value in test [2] (10^−2 M) was determined as 118%; in test [2] (10^−3 M (1 mM)) it was 98%; in test [2] (10^−4 M), 109%; in test [2] (10^−5 M), 99%; in test [2] (10^−6 M (1 μM)), 117%. The “Average of the NEFA” value was 167 µM in test [2] (10^−2 M); 138 µM in test [2] (10^−3 M (1 mM)); 155 µM in test [2] (10^−4 M); 140 µM in test [2] (10^−5 M); 166 µM in test [2] (10^−6 M (1 μM)). In addition, the stimulation of lipolysis entry in test [2] (setting [9]) is “did not stimulate lipolysis”.

For the compound `CC/C=C\C/C=C\C/C=C\C/C=C\C/C=C\CCCC(=O)O` [EPA, eicosapentanoic acid, reference compound], in test [1] (setting [5]), the “% control (incorporation of acetate)” value is given as 18%, the “% inhibition (incorporation of acetate)” value is 82%, the “Average of cpm” value was found to be 43253 cpm and the “cpm - t0 test (incorporation of acetate)” value is listed as 36788 cpm. Besides, in test [1] (setting [6]), the “% control (incorporation of acetate)” value came to 38%, the “% inhibition (incorporation of acetate)” value was determined as 62%, the “Average of cpm” value is on record as 96244 cpm and the “cpm - t0 test (incorporation of acetate)” value was found to be 89779 cpm. In test [1] (setting [7]), the “% control (incorporation of acetate)” value was 3%, the “% inhibition (incorporation of acetate)” value amounted to 97%, the “Average of cpm” value is 1287 cpm and the “cpm - t0 test (incorporation of acetate)” value came out at 6373 cpm. Also, in test [1] (setting [8]), the “% control (incorporation of acetate)” value amounted to 3%, the “% inhibition (incorporation of acetate)” value is listed as 97%, the “Average of cpm” value amounted to 13384 cpm and the “cpm - t0 test (incorporation of acetate)” value came out at 6919 cpm.

For `CC(C)NCC(O)c1ccc(O)c(O)c1` (stereo not shown) [Isoproterenol, isoproterenol, reference compound], the stimulation of lipolysis entry in test [2] (1 μM, p<0.05) was “stimulated the lipolysis”. Also, in test [2] (10^−6 M (1 μM)), the “% Control (NEFA liberation)” value is 342% and the “Average of the NEFA” value came to 483 µM.

Turning to `Cn1c(=O)c2[nH]cnc2n(C)c1=O` [Theophylline, theophylline, reference compound], the stimulation of lipolysis result in test [2] (1 nM, p<0.05) is reported as “stimulated the lipolysis”. Also, in test [2] (10^−3 M (1 mM)), the “% Control (NEFA liberation)” value amounted to 390% and the “Average of the NEFA” value is 551 µM.

For insulin, the “increase of the incorporation of acetate” value in test [1] (1 nM of insulin) was determined as 16%; in test [1] (100 nM of insulin, another donor), 120%.
